According to patent US9994515B2, “Aryl naphthyl methanone oxime(s) and process for preparation thereof” (Council of Scientific & Industrial Research, priority 2013, dated 2018):
Where a name gives a salt, the structure may show the parent alone. Read-outs that look alike come from different tables or passages of the source.

Experiments:
[1] = test system: PBMCs isolated from healthy individuals; assay: MTT cytotoxicity in PBMCs from healthy controls; conditions: 1 μM, 48 h; for % cell death, Average: healthy control, average of C1-C3
[2] = test system: SW620; assay: Sulphorhodamine B assay in SW620 colon cancer cells; type: cell-based; conditions: Homo sapiens, SW-620; SRB assay
[3] = test system: DLD1; assay: Sulphorhodamine B assay in DLD1 colon cancer cells; type: cell-based; conditions: Homo sapiens, DLD-1; SRB assay
[4] = test system: HCT116; assay: Sulphorhodamine B assay in HCT116 colon cancer cells; type: cell-based; conditions: Homo sapiens, HCT-116; SRB assay
[5] = test system: Colo205; assay: Sulphorhodamine B assay in Colo205 colon cancer cells; type: cell-based; conditions: Homo sapiens, COLO 205; SRB assay
[6] = test system: CD133+ DLD1 colon cancer cells; assay: CD133+ colon cancer stem cell population by flow cytometry; type: cell-based; conditions: 20 uM, 24 h, vehicle 15.30%
Method: FIG. 9. Centans reduces CD133+ colon cancer stem cells with a higher efficacy than salinomycin. DLD1 colon cancer cells were treated with indicated compounds for 24h following which the CD133+ population was assessed by flow cytometry using CD133 antibody or relevant isotype control antibody (BD biosciences) in a Becton Dickinson FACS Calibur. Numbers in the dot plot represent % CD133+ cells.

[7] = test system: K562; assay: MTT cytotoxicity assay in K562 cells; type: cell-based
[8] = test system: HL60; assay: MTT cytotoxicity assay in HL-60 cells; type: cell-based
[9] = test system: NIH3T3; assay: MTT cytotoxicity assay in NIH3T3 fibroblasts; type: cell-based, mouse
Method: (§1) To consider a molecule as a candidate compound in cancer drug therapy, the test compound must have specific cytotoxicity towards the cancer cells without affecting normal cell growth. Therefore, all active compounds were assessed for toxicity in non-cancer cell-lines: mouse fibroblast cell line (NIH3T3) and monkey kidney epithelial cells (Vero). […] Therefore, based on safety index ([…]), 5d [Centans; based on IUPAC name prefixed with Central Drug Research Institute's signature (Cent)] was selected as a lead compound.

[10] = test system: Kasumi 1; assay: Cytotoxicity in Kasumi 1 cells; type: cell-based
[11] = test system: U937; assay: Cytotoxicity in U937 cells; type: cell-based
[12] = test system: Vero; assay: Cytotoxicity in Vero kidney epithelial cells; type: cell-based, monkey; conditions: Primates, Vero; Table 2; normal cell line
Method: as §1

[13] = test system: MCF-7; assay: MTT assay in MCF-7 breast tumor cells; type: cell-based; conditions: Homo sapiens, MCF7, Table 6, 48 h, 10 point dose response
[14] = test system: MDA-MB231; assay: MTT assay in MDA-MB-231 breast tumor cells; type: cell-based; conditions: Homo sapiens, MDA-MB-231, Table 6, 48 h, 10 point dose response
[15] = test system: DU-145; assay: MTT assay in DU-145 prostate tumor cells; type: cell-based; conditions: Homo sapiens, DU-145, Table 6, 48 h, 10 point dose response
[16] = test system: Ishikawa; assay: MTT assay in Ishikawa endometrial adenocarcinoma cells; type: cell-based; conditions: Homo sapiens, Ishikawa, Table 6, 48 h, 10 point dose response
[17] = Table 1, MTT assay after 48 h treatment, fumarate
[18] = Homo sapiens, K562, 48 h, Table 1, MTT assay after 48 h treatment
[19] = Homo sapiens, HL-60, 48 h, Table 1, MTT assay after 48 h treatment
[20] = Mus musculus, NIH3T3, 48 h, Table 1, MTT assay after 48 h treatment
[21] = Mus musculus, NIH3T3, Table 2, normal cell line
[22] = Homo sapiens, Kasumi 1, Table 2

SMILES | IC50 [13] [µM] | IC50 [14] [µM] | IC50 [15] [µM] | IC50 [16] [µM] | IC50 [7, 18] [µM] | IC50 [8, 19] [µM] | IC50 [9, 20] [µM] | also measured
Cc1ccc(NC(=O)c2ccc(CN3CCN(C)CC3)cc2)cc1Nc1nccc(-c2cccnc2)n1 [Imatinib] | – | – | – | – | – | – | – | % cell death ([1]; healthy control sample C1): 10.51%; % cell death, Average [1]: 16.12%
O=c1[nH]cc(F)c(=O)[nH]1 [Compound 5-FU, 5-fluoro uracil, reference compound] | – | – | – | – | – | – | – | IC50 [2]: > 50 µM; IC50 [3]: 16.4 µM; IC50 [4]: > 50 µM; IC50 [5]: 38.1 µM; CD133+ population after treatment (minus isotype control) [6]: no effect
CCN(CC)CCO/N=C(/c1ccc(SC)cc1)c1cccc2ccccc12 [Compound 5j, (4-(methylthio)phenyl)(naphthalen-1-yl)methanone O-2-(diethylamino)ethyl oxime fumarate] | – | – | – | – | – | – | – | IC50 [7, 17]: 8.5 µM; IC50 ([7]; Table 2, fumarate): 8.5 µM; IC50 [8, 17]: 10 µM; IC50 ([8]; Table 2, fumarate): 10 µM; IC50 [9, 17]: 25 µM; IC50 ([9]; Table 2, normal cell line, fumarate): 25 µM; IC50 ([10]; Table 2, fumarate): 20 µM; IC50 ([11]; Table 2, fumarate): > 24 µM
Cc1nc(Nc2ncc(C(=O)Nc3c(C)cccc3Cl)s2)cc(N2CCN(CCO)CC2)n1 [Dasatinib] | – | – | – | – | – | – | – | IC50 ([7]; Homo sapiens, K562, 48 h, Table 3, MTT, 48 h, 10 point dose response, read-out: IC 50 K562): 6.8 µM; IC50 ([8]; Homo sapiens, HL-60, 48 h, Table 3, MTT, 48 h, 10 point dose response, read-out: IC 50 HL 60): 6.85 µM; % cell death ([1]; healthy control sample C1): 2.39%; % cell death ([1]; healthy control sample C2): 12.03%; % cell death ([1]; healthy control sample C3): 18.93%; % cell death, Average [1]: 11.12%
CC[C@@H](C(=O)[C@@H](C)[C@@H](O)[C@H](C)[C@@H]1O[C@@H]([C@@H](CC)C(=O)O)CC[C@@H]1C)[C@H]1O[C@]2(C=C[C@@H](O)[C@]3(CC[C@@](C)([C@H]4CC[C@](O)(CC)[C@H](C)O4)O3)O2)[C@H](C)C[C@@H]1C [salinomycin] | – | – | – | – | – | – | – | CD133+ population after treatment (minus isotype control) [6]: 5.42%

Further lines, with some results ahead:

IC50 [13] [µM] | IC50 [14] [µM] | IC50 [15] [µM] | IC50 [16] [µM] | SMILES | IC50 [7, 18] [µM] | IC50 [8, 19] [µM] | IC50 [9, 20] [µM] | also measured
8 | 7.2 | 9.5 | 7 | CSc1ccc(/C(=N/OCCCN(C)C)c2cccc3ccccc23)cc1 [Compound 5m, (4-(methylthio)phenyl)(naphthalen-1-yl)methanone O-3-(dimethylamino)propyl oxime oxalate] | 4.8 | 7.78 | > 25 | IC50 ([7]; Homo sapiens, K562, Table 2): 4.8 µM; IC50 ([8]; Homo sapiens, HL-60, Table 2): 7.78 µM; IC50 [9, 21]: > 25 µM; IC50 [10, 22]: > 10 µM; IC50 ([11]; Homo sapiens, U-937, Table 2): > 15 µM; IC50 [12]: > 25 µM
13.5 | 8.8 | 10 | 10 | CSc1ccc(/C(=N/OCCN2CCCCC2)c2cccc3ccccc23)cc1 [Compound 5a, (4-(methylthio)phenyl)(naphthalen-1-yl)methanone O-2-(piperidin-1-yl)ethyl oxime oxalate] | 5.8 | > 20 | 15 | IC50 ([7]; Homo sapiens, K562, Table 2): 5.8 µM; IC50 ([8]; Homo sapiens, HL-60, Table 2): > 20 µM; IC50 [9, 21]: 15 µM; IC50 [10, 22]: 27 µM; IC50 ([11]; Homo sapiens, U-937, Table 2): > 18 µM; IC50 [12]: > 25 µM
6.5 | 20 | 10 | > 50 | CSc1ccc(/C(=N/OCCCN2CCC(C)CC2)c2cccc3ccccc23)cc1 [Compound 7c, (4-(methylthio)phenyl)(naphthalen-1-yl)methanone O-3-(4-methylpiperidin-1-yl)propyl oxime oxalate] | 5.73 | > 50 | 21 | IC50 ([7]; Homo sapiens, K562, Table 2): 5.73 µM; IC50 ([8]; Homo sapiens, HL-60, Table 2): > 50 µM; IC50 [9, 21]: 21 µM; IC50 [10, 22]: 19 µM; IC50 ([11]; Homo sapiens, U-937, Table 2): > 25 µM; IC50 [12]: > 25 µM
18 | 20 | > 50 | > 50 | CSc1ccc(/C(=N/O)c2cccc3ccccc23)cc1 [Compound 4a, (4-(methylthio)phenyl)(naphthalen-1-yl)methanone oxime] | > 50 | > 50 | > 50 | melting point: 135 °C
> 50 | > 50 | > 50 | > 50 | CSc1ccc(/C(=N/OCCCN2CCOCC2)c2cccc3ccccc23)cc1 [Compound 7b, (4-(methylthio)phenyl)(naphthalen-1-yl)methanone O-3-morpholinopropyl oxime] | > 50 | > 50 | > 50 | melting point: 89 °C
> 50 | > 50 | > 50 | > 50 | CSc1ccc(/C(=N/OCCN2CCOCC2)c2cccc3ccccc23)cc1 [Compound 5f, (4-(methylthio)phenyl)(naphthalen-1-yl)methanone O-2-morpholinoethyl oxime] | > 25 | > 50 | 26 | –
